Values joined by “and” are separate entries in the source; they are usually repeats but may differ in a detail not shown here. Equal values may be shown once. Records with an inconclusive call do not appear. Active and inactive are the calls of the source. How the calls were made is not given here.
What was measured:
[1] = system: Mycobacterium tuberculosis H37Rv growth, 7H9 medium; test: M. tuberculosis growth inhibition, dose response, 7H9 medium, purified and synthesized samples, set 9 (AID 602435); conditions: for IC50: measured here: IC50 growth inhibition replicates
[2] = as above; conditions: Mycobacterium tuberculosis H37Rv growth, 7H9 medium

SMILES | IC90 [1] | IC50 [1] | growth inhibition ([2]; at 100 µM (top of the series)) | growth inhibition ([2]; at 50 µM (top of the series))
O=C(NCc1ccc(C(=O)N2CCC(c3ccccc3)CC2)cc1)NC1CCCCC1 | 88.7 µM | 69.1 µM | – | –
O=C(NCc1ccc(C(=O)N2CCN(c3ccccc3)CC2)cc1)NC1CCCCC1 | – | – | 2.95% (inactive) | –
O=C(c1ccc(CNc2c(N3CCCC3)c(=O)c2=O)cc1)N1CCC(c2ccccc2)CC1 | – | 79.7 µM | – | –
O=C(c1ccc(CNc2c(N3CCCC3)c(=O)c2=O)cc1)N1CCc2ccccc2C1 | – | 5.06 µM | – | –
COc1ccc(N2CCN(C(=O)c3ccc(CNc4c(N5CCCC(C)C5)c(=O)c4=O)cc3)CC2)cc1 (stereo not given) | 46.9 µM | 28.1 µM | – | –
COC(=O)C(Cc1ccccc1)NC(=O)CSc1nc2ccccc2c(=O)[nH]1 (stereo not given) | – | – | 4.82% (inactive) | –
CCOC(=O)N1CCC(Nc2c(Nc3cccc(CC)c3)c(=O)c2=O)CC1 | – | – | – | 3.52% (inactive)
O=C(c1ccc(CNc2c(N3CCCC3)c(=O)c2=O)cc1)N1CCN(c2ccccc2)CC1 | – | 62.3 µM | – | –
O=C(c1ccc(CNc2c(N3CCCC3)c(=O)c2=O)cc1)N1CC=C(c2ccccc2)CC1 | – | 3.22 µM and 2.96 µM | – | –
CCC(C)NC(=O)CSc1nc2ccccc2c(=O)[nH]1 (stereo not given) | 16.9 µM | 15.7 µM | – | –
CC1CCN(C(=O)c2ccc(CNc3c(N4CCCC4)c(=O)c3=O)cc2)CC1 | – | 8.48 µM | – | –
CCOc1ccc(NC(=O)c2ccc(CNc3c(N4CCCC4)c(=O)c3=O)cc2)cc1 | – | – | -10% (inactive) | –
O=C(c1ccc(CNc2c(N3CCOCC3)c(=O)c2=O)cc1)N1CC=C(c2ccccc2)CC1 | 6.81 µM | 0.957 µM | – | –
O=C(NCCc1ccc(Cl)cc1)C1CCC(CNc2c(N3CCCCC3)c(=O)c2=O)CC1 (stereo not given) | – | 37.1 µM | – | –
O=C(NCc1ccc(C(=O)N2CCC(c3ccccc3)CC2)cc1)Nc1ccc(Cl)cc1 | 94 µM | 74.4 µM | – | –
CC(C)OC(=O)CSc1ncnc2c1cnn2-c1ccccc1 | – | 28.7 µM | – | –
CC1CCCN(c2c(NCc3ccc(C(=O)N4CC=C(c5ccccc5)CC4)cc3)c(=O)c2=O)C1 (stereo not given) | 11.8 µM | 7.54 µM | – | –
CCOC(=O)CSc1ncnc2c1cnn2-c1ccc(C)cc1C | 3.65 µM | 2.42 µM | – | –
COc1ccc(N2CCN(C(=O)c3ccc(CNc4c(N5CCOCC5)c(=O)c4=O)cc3)CC2)cc1 | – | 6.35 µM and 6.09 µM | – | –
O=C(NCCc1ccc(Cl)cc1)c1ccc(CNc2c(N3CCOCC3)c(=O)c2=O)cc1 | 19.1 µM | 10.5 µM and 12.5 µM | – | –
COc1ccc(N2CCN(C(=O)c3ccc(CNC(=O)NCc4ccc(Cl)cc4)cc3)CC2)cc1 | – | – | 3.4% (inactive) | –

SMILES | IC90 [1] | IC50 [1] | growth inhibition ([2]; at 100 µM (top of the series)) | growth inhibition ([2]; at 50 µM (top of the series))
CC1CCCN(C(=O)C2CCC(CNc3c(N4CCCCC4)c(=O)c3=O)CC2)C1 (stereo not given) | – | 26.2 µM | – | –
Cc1cccc(N2CCN(C(=O)c3ccc(CNc4c(N5CCC(C)CC5)c(=O)c4=O)cc3)CC2C)c1 (stereo not given) | 41.3 µM | 26.9 µM | – | –
CC(C)CCNC(=O)CSc1nc2ccccc2c(=O)[nH]1 | 0.78 µM | 0.696 µM | – | –
CC1CCCN(C(=O)c2ccc(CNc3c(N4CCCCC4)c(=O)c3=O)cc2)C1 (stereo not given) | – | 3.7 µM | – | –
CC1CC(C)CN(C(=O)C2CCC(CNc3c(N4CCCCC4)c(=O)c3=O)CC2)C1 (stereo not given) | – | 13.7 µM and 29 µM | – | –
CC(=O)c1ccc(NC(=O)c2ccc(CNc3c(N4CCOCC4)c(=O)c3=O)cc2)cc1 | – | 50 µM | – | –
O=C(c1ccc(CNc2c(N3CCOCC3)c(=O)c2=O)cc1)N1CCN(c2ccccc2)CC1 | – | 3.45 µM | – | –
CCOC(=O)CSc1ncnc2c1cnn2-c1ccccc1 | 39.5 µM | 15.3 µM | – | –
O=C(CSc1nc2ccccc2c(=O)[nH]1)NC1CCOCC1 | 26 µM | 23.1 µM | – | –
Cc1cccc(N2CCN(C(=O)c3ccc(CNc4c(N5CCC(C)CC5)c(=O)c4=O)cc3)CC2)c1C | – | 42.1 µM | – | –
COCCNC(=O)CSc1nc2ccccc2c(=O)[nH]1 | – | – | -5.73% (inactive) | –
CC(C)CCNC(=O)CSc1nc2c(c(=O)[nH]1)CCCC2 | 6.12 µM | 4.43 µM | – | –
O=C(CSc1nc2ccccc2c(=O)[nH]1)NC1CCCCC1 | < 0.29 µM | 0.195 µM | – | –
O=C(CSc1nc2c(c(=O)[nH]1)CCC2)NC1CCCCC1 | 3.92 µM | 2.97 µM | – | –
COC(=O)CSc1ncnc2c1cnn2-c1ccc(C)cc1C | 3.65 µM | 2.57 µM | – | –
O=C(CSc1nc2c(c(=O)[nH]1)CCCC2)NC1CCCCC1 | 3.12 µM | 1.97 µM | – | –
O=C(c1ccc(CNc2c(N3CCOCC3)c(=O)c2=O)cc1)N1CCC(c2ccccc2)CC1 | 16 µM | 3.43 µM | – | –
O=C(CSc1nc2c(c(=O)[nH]1)CN(Cc1ccccc1)CC2)NC1CCCCC1 | – | – | -0.3% (inactive) | –
O=C(C1CCC(CNc2c(N3CCCCC3)c(=O)c2=O)CC1)N1CCCCC1 (stereo not given) | – | 25.2 µM | – | –
CC1CC(C)CN(C(=O)c2ccc(CNc3c(N4CCCC4)c(=O)c3=O)cc2)C1 (stereo not given) | – | 8.84 µM | – | –
CC(C)CCNC(=O)CSc1nc2c(c(=O)[nH]1)CCCCC2 | – | 99.6 µM | – | –
